According to patent publication US20240166671A1, “Novel Stannic Protoporfin Compositions, Methods of Making, and Uses Thereof” (Renibus Therapeutics, Inc., priority 2022, published 2024):

How the values were obtained:
[1] = system: cultured human tubule cells; experiment: Cell viability of cultured human tubule cells exposed to SnPP; format: cell-based; settings: for % Viable Cells: n = 6, control 100%
Procedure: The composition of Example 1 and the Comparative Example were exposed to incubated cultured human tubule cells with different concentrations of SnPP.

HO-1 = experiment: HO-1/GAPDH mRNA (cortex) after IV FeS + SnPP, biomarker for oxidative stress; format: in vivo; settings: combined with iron sucrose; HO-1 as indicator of oxidative stress
Procedure: The SnPP composition of Example 1 and the Comparative Example (1 micromole) were combined with iron sucrose (1 mg) to assess biomarkers for oxidative stress.

SMILES: C=CC1=C(C)C2=Cc3c(C=C)c(C)c4[n]3[Sn]([Cl])([Cl])[n]3c(c(C)c(CCC(=O)O)c3=CC3=NC(=C4)C(C)=C3CCC(=O)O)=CC1=N2 [Example 1, Stannic protoporfin]
- % Viable Cells ([1]; SnPP 10 nmol/mL): 97.9%
- % Viable Cells ([1]; SnPP 25 nmol/mL): 95.3%
- % Viable Cells ([1]; SnPP 75 nmol/mL): 88.9%
- cell killing ([1]; highest concentration of SnPP (75 nmol/mL)): 11%
- cell death relative to comparative example ([1]; human tubule cells): less cell death
- HO-1 induction relative to comparative example (HO-1): lower HO-1 induction
